Test results published in ChEMBL document CHEMBL4350953, “Inhibitor of Apoptosis Protein (IAP) Antagonists in Anticancer Agent Discovery: Current Status and Perspectives” (J Med Chem, 2019).
Values belong to the compound of their own block, whether it stands above or below them.

Experiments:
[1] = molecular target: T1, E3 ubiquitin-protein ligase XIAP (Homo sapiens, UniProt P98170); assay: Binding affinity to XIAP-BIR3 domain (241 to 356 residues) (unknown origin) by fluorescence polarization-based competition assay
T1 sequence (P98170 whole entry, the tested form may be a part): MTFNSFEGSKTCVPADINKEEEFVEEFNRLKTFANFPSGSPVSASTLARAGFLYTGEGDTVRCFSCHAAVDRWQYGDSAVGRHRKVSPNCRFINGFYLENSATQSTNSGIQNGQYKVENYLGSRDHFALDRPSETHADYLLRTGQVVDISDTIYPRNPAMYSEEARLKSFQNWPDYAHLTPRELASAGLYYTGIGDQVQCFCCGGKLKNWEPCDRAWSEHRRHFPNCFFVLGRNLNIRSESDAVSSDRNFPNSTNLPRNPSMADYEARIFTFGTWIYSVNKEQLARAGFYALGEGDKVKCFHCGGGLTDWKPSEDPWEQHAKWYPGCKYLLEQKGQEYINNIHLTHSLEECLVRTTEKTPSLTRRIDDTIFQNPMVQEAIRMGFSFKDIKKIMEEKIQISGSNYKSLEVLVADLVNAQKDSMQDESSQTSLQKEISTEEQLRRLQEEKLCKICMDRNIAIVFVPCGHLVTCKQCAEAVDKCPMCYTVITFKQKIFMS

HL-60 = assay: Cytotoxicity against human HL60 cells assessed as reduction in cell viability; assay type: functional, cell-based
[2] = molecular target: T1, E3 ubiquitin-protein ligase XIAP; assay: Binding affinity to XIAP-BIR2 domain (unknown origin) by fluorescence polarization-based competition assay
Caspase-9 = molecular target: T2, Caspase-9 (Homo sapiens, UniProt P55211); assay: Inhibition of N-terminal CARD domain of caspase 9 (unknown origin)
T2 sequence (P55211 whole entry): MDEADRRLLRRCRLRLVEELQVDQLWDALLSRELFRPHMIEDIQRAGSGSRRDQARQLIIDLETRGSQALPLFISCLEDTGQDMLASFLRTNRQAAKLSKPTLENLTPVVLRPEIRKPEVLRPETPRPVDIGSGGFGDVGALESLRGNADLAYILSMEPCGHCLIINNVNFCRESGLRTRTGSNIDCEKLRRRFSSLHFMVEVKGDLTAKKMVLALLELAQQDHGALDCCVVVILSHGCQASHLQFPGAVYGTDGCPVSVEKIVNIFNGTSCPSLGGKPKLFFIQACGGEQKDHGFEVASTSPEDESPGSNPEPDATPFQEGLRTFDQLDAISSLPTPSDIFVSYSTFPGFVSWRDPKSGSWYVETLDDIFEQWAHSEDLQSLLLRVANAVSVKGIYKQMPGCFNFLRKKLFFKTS

MDA-MB-231 [3] = assay: Cytotoxicity against human MDA-MB-231 cells assessed as reduction in cell viability
MDA-MB-231 [4] = assay: Growth inhibition of human MDA-MB-231 cells; assay type: functional
[5] = molecular target: T3, Baculoviral IAP repeat-containing protein 2 (Homo sapiens, UniProt Q13490); assay: Binding affinity to cIAP1-BIR3 domain (unknown origin)
T3 sequence (Q13490 whole entry, the tested form may be a part): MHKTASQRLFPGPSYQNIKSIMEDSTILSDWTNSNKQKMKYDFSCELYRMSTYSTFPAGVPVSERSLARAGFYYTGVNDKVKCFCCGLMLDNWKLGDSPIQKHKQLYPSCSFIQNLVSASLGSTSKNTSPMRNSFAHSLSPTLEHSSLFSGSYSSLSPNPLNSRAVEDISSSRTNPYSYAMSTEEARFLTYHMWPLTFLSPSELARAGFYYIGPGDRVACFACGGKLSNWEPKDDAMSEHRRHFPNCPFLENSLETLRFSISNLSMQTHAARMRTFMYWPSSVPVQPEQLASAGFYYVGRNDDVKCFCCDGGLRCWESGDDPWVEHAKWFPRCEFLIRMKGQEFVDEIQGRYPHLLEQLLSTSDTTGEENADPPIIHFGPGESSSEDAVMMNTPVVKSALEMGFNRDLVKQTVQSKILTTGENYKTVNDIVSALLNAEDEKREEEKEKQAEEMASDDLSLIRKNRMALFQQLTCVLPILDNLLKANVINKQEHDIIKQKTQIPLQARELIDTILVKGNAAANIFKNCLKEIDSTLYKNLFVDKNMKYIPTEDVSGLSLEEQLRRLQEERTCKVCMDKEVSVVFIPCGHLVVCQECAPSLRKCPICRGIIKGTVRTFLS

[6] = molecular target: T3, Baculoviral IAP repeat-containing protein 2; assay: Induction of cIAP1 (unknown origin) degradation
[7] = molecular target: Baculoviral IAP repeat-containing protein 3 (Homo sapiens, UniProt Q13489); assay: Binding affinity to cIAP2-BIR3 domain (unknown origin)
Chain of Baculoviral IAP repeat-containing protein 3 (Q13489 whole entry, the tested form may be a part): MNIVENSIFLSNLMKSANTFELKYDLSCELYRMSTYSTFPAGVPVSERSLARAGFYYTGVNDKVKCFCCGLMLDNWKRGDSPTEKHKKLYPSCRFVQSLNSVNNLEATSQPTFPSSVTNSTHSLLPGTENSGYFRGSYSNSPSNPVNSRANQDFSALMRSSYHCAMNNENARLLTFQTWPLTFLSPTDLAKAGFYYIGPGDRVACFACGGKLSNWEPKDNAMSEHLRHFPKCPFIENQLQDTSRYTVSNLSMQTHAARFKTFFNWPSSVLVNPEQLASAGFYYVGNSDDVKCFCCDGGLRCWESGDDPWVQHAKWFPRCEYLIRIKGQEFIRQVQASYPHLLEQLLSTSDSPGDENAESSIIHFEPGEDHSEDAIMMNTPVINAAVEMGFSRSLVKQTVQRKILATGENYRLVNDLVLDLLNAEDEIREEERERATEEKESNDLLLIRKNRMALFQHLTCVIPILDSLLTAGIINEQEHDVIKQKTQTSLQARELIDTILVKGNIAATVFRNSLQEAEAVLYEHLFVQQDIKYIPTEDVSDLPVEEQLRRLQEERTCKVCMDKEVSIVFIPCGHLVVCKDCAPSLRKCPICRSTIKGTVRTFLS

[8] = molecular target: T1, E3 ubiquitin-protein ligase XIAP; assay: Binding affinity to XIAP-BIR2/BIR3 domain (unknown origin)

SMILES: CN[C@@H](C)C(=O)N[C@H]1CCCC[C@H]2CC[C@@H](C(=O)NC(c3ccccc3)c3ccccc3)N2C1=O
IC50 (HL-60): 1400 nM

SMILES: CN[C@@H](C)C(=O)NC1CCCC[C@H]2CC[C@@H](C(=O)N[C@@H](c3ccccc3)c3cn(CCCCc4ccc(CCCCn5cc([C@@H](NC(=O)[C@@H]6CC[C@@H]7CCCC[C@H](NC(=O)[C@H](C)NC)C(=O)N76)c6ccccc6)nn5)cc4)nn3)N2C1=O (stereo not given in full)
IC50 (HL-60): 1 nM

SMILES: CN[C@@H](C)C(=O)N[C@H](C(=O)N1CCC[C@H]1C(=O)N[C@H]1c2ccccc2C[C@H]1OCC#CC#CCO[C@@H]1Cc2ccccc2[C@@H]1NC(=O)[C@@H]1CCCN1C(=O)[C@@H](NC(=O)[C@H](C)NC)C(C)(C)C)C(C)(C)C
GI50 (MDA-MB-231 [4]): < 0.06 nM
IC50 [5]: 15 nM
EC50 [6]: 0.1 nM

SMILES: CC[C@H](NC(=O)[C@H](C)NC)C(=O)N1C[C@@H](O)C[C@H]1Cc1c(-c2[nH]c3cc(F)ccc3c2C[C@@H]2C[C@H](O)CN2C(=O)[C@H](CC)NC(=O)[C@H](C)NC)[nH]c2cc(F)ccc12 [BIRINAPANT]
Kd [7]: 36 nM

SMILES: CN[C@@H](C)C(=O)N[C@H]1CCCC[C@H]2CC[C@@H](C(=O)N[C@@H](c3ccccc3)c3cn(Cc4ccccc4)nn3)N2C1=O
IC50 [8]: 376 nM
IC50 (HL-60): 2000 nM

SMILES: CN[C@@H](C)C(=O)N[C@@H](CNC(=O)c1ccc(S(=O)(=O)F)cc1)C(=O)N1CCC[C@@H]1c1cncc(Cc2ccc(F)cc2)n1
IC50 [5]: > 200 nM

Second part, led by results:

Kd [1]: 29 nM
SMILES: CN[C@@H](C)C(=O)N[C@H](C(=O)N1CCC[C@H]1C(=O)N[C@H]1CCc2ccccc21)C(C)(C)C

Kd [1]: 28 nM
Kd [2]: 112 nM
SMILES: CN[C@@H](C)C(=O)N[C@H](C(=O)N1CCC[C@H]1C(=O)Nc1snnc1-c1ccccc1)C1CCCCC1 [GDC-0152]

EC50 (Caspase-9): 290 nM
SMILES: CN[C@@H](C)C(=O)N[C@H](C(=O)N1CCC[C@H]1C(=O)N[C@H]1CCCc2ccccc21)C(C)(C)C
IC50 (MDA-MB-231 [3]): 68 nM

EC50 (Caspase-9): 240 nM
SMILES: CN[C@@H](C)C(=O)N[C@H](C(=O)N1CC[C@@H](Oc2ccccc2)[C@H]1C(=O)N[C@H]1CCCc2ccccc21)C(C)(C)C

EC50 (Caspase-9): 310 nM
SMILES: CN[C@@H](C)C(=O)N[C@H](C(=O)N1CCC[C@H]1C(=O)N[C@H]1CCCc2ccccc21)C1CCCCC1
IC50 (MDA-MB-231 [3]): 13 nM

GI50 (MDA-MB-231 [4]): 15 nM
SMILES: CC[C@H](NC)C(=O)N[C@H](C(=O)N1C[C@H]2Cc3cc(Cl)ccc3N2C[C@H]1C(=O)N[C@H]1CCOc2ccccc21)C1CCCCC1

GI50 (MDA-MB-231 [4]): 1.8 nM
Kd [5]: 1.3 nM
SMILES: CCO[C@@H]1C[C@@H]2CN(C(=O)[C@@H](NC(=O)[C@H](C)NC)C3CCC(F)(F)CC3)[C@H](C(=O)N[C@H]3CCOc4ccccc43)CN2C1
